Laboratory results taken from ChEMBL document CHEMBL1201862, “PubChem BioAssay data set” (2004).
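Briefly, cells in 96-well plates were exposed to five compound concentrations for 48 h, and endpoints were estimated by linear interpolation. At the GI50, growth is halved.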 Active and inactive are the calls of the source. Rule as the data show it: active = GI50 up to about 1.1 µM and inactive = higher.

Legend:
Assay in all cases: inhibition of tumour cell growth, NCI panel, 48 h
786-0 = tested on: 786-0
A549 = tested on: A549
CAKI-1 = tested on: CAKI-1
HCC 2998 = tested on: HCC 2998
HCT-15 = tested on: HCT-15
OVCAR-3 = tested on: OVCAR-3
OVCAR-4 = tested on: OVCAR-4
SF-268 = tested on: SF-268
SF-295 = tested on: SF-295
SF-539 = tested on: SF-539
SNB-75 = tested on: SNB-75
SW-620 = tested on: SW-620
UACC-62 = tested on: UACC-62
UO-31 = tested on: UO-31
CCRF-CEM = tested on: CCRF-CEM
HOP-62 = tested on: HOP-62
LOX IMVI = tested on: LOX IMVI
NCI-H460 = tested on: NCI-H460
NCI/ADR-RES = tested on: NCI/ADR-RES

Row | SMILES | GI50 (786-0) | GI50 (A549) | GI50 (CAKI-1) | GI50 (HCC 2998) | GI50 (HCT-15) [µM] | GI50 (OVCAR-3) | GI50 (OVCAR-4) | GI50 (SF-268) | GI50 (SF-295) | GI50 (SF-539) | GI50 (SNB-75) | GI50 (SW-620) | GI50 (UACC-62) | GI50 (UO-31) | GI50 (CCRF-CEM) | GI50 (HOP-62) | GI50 (LOX IMVI) | GI50 (NCI-H460) | GI50 (NCI/ADR-RES)
1 | O=c1[nH]c(-c2ccccc2)nc2cc([N+](=O)[O-])c(/C(Cl)=C/c3ccccc3)cc12 | 35 µM (inactive) | 23.2 µM (inactive) | 15.1 µM (inactive) | > 100 µM (inactive) | 7.82 | 30 µM (inactive) | 18.3 µM (inactive) | 29.2 µM (inactive) | 20.7 µM (inactive) | 25.2 µM (inactive) | 22.3 µM (inactive) | 23.6 µM (inactive) | 15.1 µM (inactive) | 99.5 µM (inactive) | – | – | – | – | –
2 | O=[N+]([O-])c1ccc(C2=Nc3ccccc3SC(c3ccccc3)C2)cc1 (configuration not stated) | – | 20.4 µM (inactive) | 17.6 µM (inactive) | 15.2 µM (inactive) | 16.3 | – | 14.3 µM (inactive) | 24.7 µM (inactive) | 20.2 µM (inactive) | 21.4 µM (inactive) | 18.1 µM (inactive) | 14.5 µM (inactive) | 13.7 µM (inactive) | 12.9 µM (inactive) | 14.7 µM (inactive) | 20.7 µM (inactive) | 13.7 µM (inactive) | 20.6 µM (inactive) | –
3 | Nc1n[nH]c(CCCCCCCc2nnc(N)[nH]2)n1 | – | – | – | > 100 µM (inactive) | > 100 | > 100 µM (inactive) | > 100 µM (inactive) | > 100 µM (inactive) | – | > 100 µM (inactive) | > 100 µM (inactive) | – | > 100 µM (inactive) | > 100 µM (inactive) | > 100 µM (inactive) | > 100 µM (inactive) | > 100 µM (inactive) | > 100 µM (inactive) | –
4 | Cc1cc2c(cc1C)[n+]([O-])c(C(=O)/C=C/c1ccc(Cl)cc1)c(C)[n+]2[O-] | 18.9 µM (inactive) | 28.2 µM (inactive) | 32.3 µM (inactive) | 23.5 µM (inactive) | 33 | 33 µM (inactive) | 33.7 µM (inactive) | > 10 µM (inactive) | 22 µM (inactive) | 20.5 µM (inactive) | 19.6 µM (inactive) | 31.1 µM (inactive) | 20.3 µM (inactive) | 17.9 µM (inactive) | 32.9 µM (inactive) | 24.4 µM (inactive) | 21.7 µM (inactive) | 25.9 µM (inactive) | –
5 | COC(=O)/C=C(\C)CCC1SC1(C)C (configuration not stated) | > 100 µM (inactive) | > 100 µM (inactive) | > 100 µM (inactive) | > 100 µM (inactive) | > 100 | – | > 100 µM (inactive) | > 100 µM (inactive) | > 100 µM (inactive) | > 100 µM (inactive) | > 100 µM (inactive) | 77.3 µM (inactive) | > 100 µM (inactive) | > 100 µM (inactive) | > 100 µM (inactive) | > 100 µM (inactive) | > 100 µM (inactive) | > 100 µM (inactive) | –
6 | COc1ccc(/C(Cl)=C(\C=O)c2ccc(OC)cc2)cc1 | – | 46.9 µM (inactive) | > 100 µM (inactive) | > 100 µM (inactive) | 43.7 | 64.9 µM (inactive) | 48.1 µM (inactive) | > 100 µM (inactive) | 59.8 µM (inactive) | > 100 µM (inactive) | > 100 µM (inactive) | > 100 µM (inactive) | > 100 µM (inactive) | > 100 µM (inactive) | 22.2 µM (inactive) | > 100 µM (inactive) | 80 µM (inactive) | 31.5 µM (inactive) | –
7 | Nc1cc(S(=O)(=O)O)cc2cc(S(=O)(=O)O)c(/N=N/c3ccc(-c4ccc(/N=N/c5c(S(=O)(=O)O)cc6cc(S(=O)(=O)O)cc(N)c6c5O)cc4)cc3)c(O)c12 | – | > 100 µM (inactive) | – | > 100 µM (inactive) | > 100 | > 100 µM (inactive) | > 100 µM (inactive) | > 100 µM (inactive) | > 100 µM (inactive) | > 100 µM (inactive) | > 100 µM (inactive) | > 100 µM (inactive) | – | > 100 µM (inactive) | > 100 µM (inactive) | > 100 µM (inactive) | > 100 µM (inactive) | > 100 µM (inactive) | > 100 µM (inactive)
8 | CC1OC(O)CC(OC(=O)c2ccccc2)C1OC(=O)c1ccccc1 (configuration not stated) | 29.4 µM (inactive) | > 100 µM (inactive) | 23.3 µM (inactive) | 43.6 µM (inactive) | 15.3 | 19.1 µM (inactive) | 15.1 µM (inactive) | 16.2 µM (inactive) | 48 µM (inactive) | 17.5 µM (inactive) | – | 13.3 µM (inactive) | 16.7 µM (inactive) | – | 10.3 µM (inactive) | 71.6 µM (inactive) | 11.1 µM (inactive) | 49.4 µM (inactive) | –
9 | O=C(Nc1ccccc1Br)c1cccc([N+](=O)[O-])c1O | 3.99 µM (inactive) | 3.37 µM (inactive) | 3.37 µM (inactive) | 2.49 µM (inactive) | 4.6 | 2.07 µM (inactive) | 3.01 µM (inactive) | 4.47 µM (inactive) | 3.87 µM (inactive) | 5.61 µM (inactive) | 5.25 µM (inactive) | 6.81 µM (inactive) | 1.91 µM (inactive) | 1.89 µM (inactive) | 2.78 µM (inactive) | 2.32 µM (inactive) | 2.38 µM (inactive) | 4.6 µM (inactive) | –
10 | CCOC(=O)NC(=O)c1cn(CC(=O)NCC(=O)NCC(=O)N2CCN(CCn3c(C)nc(C(N)=O)c3N)CC2)c(=O)[nH]c1=O | > 100 µM (inactive) | > 100 µM (inactive) | > 100 µM (inactive) | > 100 µM (inactive) | > 100 | – | – | > 100 µM (inactive) | > 100 µM (inactive) | > 100 µM (inactive) | > 100 µM (inactive) | > 100 µM (inactive) | > 100 µM (inactive) | > 100 µM (inactive) | > 100 µM (inactive) | > 100 µM (inactive) | > 100 µM (inactive) | > 100 µM (inactive) | –
11 | NC(=O)c1ccccc1NC(=O)C(=O)C(C(=O)c1ccc2ccccc2c1)C1OC(=O)c2ccccc21 (configuration not stated) | 6.25 µM (inactive) | 16.3 µM (inactive) | 7.67 µM (inactive) | 7.1 µM (inactive) | 16.7 | 11.7 µM (inactive) | 11.6 µM (inactive) | 4.48 µM (inactive) | – | 4.6 µM (inactive) | 8.15 µM (inactive) | 8.24 µM (inactive) | 10.4 µM (inactive) | 13.2 µM (inactive) | 10.3 µM (inactive) | 10.2 µM (inactive) | 11.3 µM (inactive) | > 100 µM (inactive) | –
12 | CN(C)C(=O)C1CCC(=C2C(=O)OC(C)(C)OC2=O)N1C (configuration not stated) | > 100 µM (inactive) | > 100 µM (inactive) | > 100 µM (inactive) | > 100 µM (inactive) | > 100 | > 100 µM (inactive) | > 100 µM (inactive) | > 100 µM (inactive) | > 100 µM (inactive) | > 100 µM (inactive) | > 100 µM (inactive) | > 100 µM (inactive) | > 100 µM (inactive) | > 100 µM (inactive) | > 100 µM (inactive) | > 100 µM (inactive) | > 100 µM (inactive) | > 100 µM (inactive) | –
13 | CC(=O)OC1=C2CC3(C)OC(=O)CC(C)(C)C3=CC=C2C=C(C(C)C)C1=O (configuration not stated) | 0.203 µM (active) | 1.9 µM (inactive) | 1.56 µM (inactive) | 0.877 µM (active) | 0.179 | 1.13 µM (inactive) | 0.299 µM (active) | 1.05 µM (active) | 1.66 µM (inactive) | – | 0.71 µM (active) | 0.316 µM (active) | 0.268 µM (active) | 1.74 µM (inactive) | 0.316 µM (active) | 11.4 µM (inactive) | 0.201 µM (active) | 1.51 µM (inactive) | –
14 | O=CCCn1[nH]c(=O)ccc1=O | > 100 µM (inactive) | > 100 µM (inactive) | > 100 µM (inactive) | > 100 µM (inactive) | > 100 | > 100 µM (inactive) | > 100 µM (inactive) | > 100 µM (inactive) | > 100 µM (inactive) | > 100 µM (inactive) | > 100 µM (inactive) | > 100 µM (inactive) | > 100 µM (inactive) | > 100 µM (inactive) | > 100 µM (inactive) | – | > 100 µM (inactive) | > 100 µM (inactive) | –
15 | CCc1ccc(Nc2cc(=O)[nH]c(=S)n2C)cc1 | > 100 µM (inactive) | > 100 µM (inactive) | > 100 µM (inactive) | – | > 100 | > 100 µM (inactive) | > 100 µM (inactive) | > 100 µM (inactive) | > 100 µM (inactive) | > 100 µM (inactive) | 46.3 µM (inactive) | > 100 µM (inactive) | > 100 µM (inactive) | > 100 µM (inactive) | > 100 µM (inactive) | > 100 µM (inactive) | > 100 µM (inactive) | > 100 µM (inactive) | –
16 | CNc1ccccc1-c1nc2ccccc2c(=O)o1 | – | > 100 µM (inactive) | > 100 µM (inactive) | > 100 µM (inactive) | > 100 | – | > 100 µM (inactive) | 32 µM (inactive) | 41.2 µM (inactive) | 35 µM (inactive) | 27.4 µM (inactive) | > 100 µM (inactive) | – | > 100 µM (inactive) | > 100 µM (inactive) | – | > 100 µM (inactive) | > 100 µM (inactive) | –
17 | COC(=O)c1ccc(/C=C2\N=C(C)OC2=O)cc1 | – | > 100 µM (inactive) | > 100 µM (inactive) | > 100 µM (inactive) | > 100 | > 100 µM (inactive) | > 100 µM (inactive) | > 100 µM (inactive) | > 100 µM (inactive) | > 100 µM (inactive) | > 100 µM (inactive) | > 100 µM (inactive) | > 100 µM (inactive) | – | > 100 µM (inactive) | > 100 µM (inactive) | > 100 µM (inactive) | > 100 µM (inactive) | –
